# Experimental data taken from the supplement of paper PMC10307832.
# Legend:
# Assay in all cases: relative viability (nuclei count vs DMSO), 5 days (fraction); higher = more cells survive
# AT-7519 + Dasatinib = compound: O=C(NC1CCNCC1)c1n[nH]cc1NC(=O)c1c(Cl)cccc1Cl [AT-7519] + Cc1nc(Nc2ncc(C(=O)Nc3c(C)cccc3Cl)s2)cc(N2CCN(CCO)CC2)n1 [Dasatinib] (partner 0.075 µM)
# Procedure, shortened: (§1)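 Cells from lung cancer lines were seeded into 1536-well plates and, one day later, dosed by pin tool. Treatments were either a single drug or a fixed dose of an anchor drug with five library-drug doses (not always all listed) in √10 steps. After 5 days, nuclei were stained in a one-step fixation (final 0.05% Triton X-100, 1% formaldehyde, 1 ug/ml Hoechst) and counted on 4× images, and relative viability is the treated-to-vehicle nuclei ratio, as the median of duplicate plates.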
# AT-7519 + Luminespib = compound: O=C(NC1CCNCC1)c1n[nH]cc1NC(=O)c1c(Cl)cccc1Cl [AT-7519] + CCNC(=O)c1noc(-c2cc(C(C)C)c(O)cc2O)c1-c1ccc(CN2CCOCC2)cc1 [Luminespib] (partner 0.01 µM)
# Procedure, shortened: as §1
# [1] = compound: C1=CC2=C(C=C(C(=C2N=C1)O)N=NC3=CC4=C(C=C3)C=C(C=C4)S(=O)(=O)O)S(=O)(=O)O + Nc1ncn([C@H]2C[C@H](O)[C@@H](CO)O2)c(=O)n1 [Decitabine] (partner 2 µM)
# Procedure, shortened: as §1
# [2] = compound: C1=CC2=C(C=C(C(=C2N=C1)O)N=NC3=CC4=C(C=C3)C=C(C=C4)S(=O)(=O)O)S(=O)(=O)O + CC(C)C[C@H](NC(=O)[C@H](Cc1ccccc1)NC(=O)c1cnccn1)B(O)O [Bortezomib] (partner 0.002 µM)
# Procedure, shortened: as §1
Cell Line,relative viability (AT-7519 + Dasatinib; first compound 0.01 µM),relative viability (AT-7519 + Dasatinib; first compound 0.03162 µM),relative viability (AT-7519 + Dasatinib; first compound 0.3162 µM),relative viability (AT-7519 + Dasatinib; first compound 1 µM),relative viability (AT-7519 + Luminespib; first compound 0.01 µM),relative viability (AT-7519 + Luminespib; first compound 0.03162 µM),relative viability (AT-7519 + Luminespib; first compound 0.3162 µM),relative viability (AT-7519 + Luminespib; first compound 1 µM),relative viability ([1]; first compound 0.08 µM),relative viability ([1]; first compound 0.253 µM),relative viability ([1]; first compound 0.8 µM),relative viability ([1]; first compound 2.53 µM),relative viability ([1]; first compound 8 µM),relative viability ([2]; first compound 0.08 µM),relative viability ([2]; first compound 0.253 µM),relative viability ([2]; first compound 0.8 µM),relative viability ([2]; first compound 2.53 µM),relative viability ([2]; first compound 8 µM)
NCI-H1395,0.418,0.377,0.408,0.413,0.606,0.648,0.665,0.508,0.724,0.734,0.737,0.714,0.691,,,,,
NCI-H1563,0.467,0.418,0.435,0.434,0.526,0.542,0.599,0.538,,,,,,0.848,0.952,0.959,0.857,0.994
NCI-H1623,0.58,0.646,0.63,0.604,0.534,0.449,0.397,0.307,,,,,,,,,,
NCI-H1648,,,,,,,,,,0.525,,,0.551,,,,,
NCI-H1703,,,,,,,,,,,,,,0.316,0.306,0.355,0.39,0.26
NCI-H1793,0.319,0.361,0.407,0.247,0.387,0.161,0.385,0.119,0.527,0.521,0.409,0.47,0.49,,,,,
NCI-H1944,0.205,0.198,0.215,0.124,0.846,0.775,0.677,0.554,0.448,0.437,0.446,0.376,0.38,,,,,
NCI-H2170,0.593,0.576,0.626,0.558,0.398,0.636,0.807,0.599,0.494,0.454,0.464,0.429,0.459,,,,,
NCI-H2228,0.407,0.464,0.516,0.352,0.152,0.174,0.156,0.165,,,,,,1.17,1.01,0.917,1.01,0.96
NCI-H2342,0.328,0.277,0.314,0.313,0.646,0.759,0.613,0.587,0.793,0.705,0.724,0.806,0.705,,,,,
SK-MES-1,0.336,0.31,0.405,0.217,0.847,0.734,0.593,0.33,0.39,0.362,0.336,0.405,0.367,,,,,
SW 900,0.715,0.568,0.642,0.254,0.171,0.183,0.173,0.179,0.442,0.412,0.448,0.473,0.538,,,,,
